Data published in patent US7671019B2, “3-deoxyglucosone and skin” (Dynamis Therapeutics, Inc., priority 2002, dated 2010).
“And” between values parts separate entries of the source, which are not always exact repeats. Equal values may be shown once.

Experiments:
[1] = target: T1, Calf skin collagen Type 1 (Bos taurus, UniProt P02453+P02465); experiment: 3DG-induced collagen crosslinking, CNBr digestion and SDS-PAGE; type: biochemical; settings: 37° C., 24 hours
T1 construct: Calf skin collagen Type 1 (1.3 mg; Sigma); purchased Sigma; host or cells: calf skin (tissue-derived)
Method: Collagen type I was treated with 3DG in the presence or absence of arginine. The samples were subjected to cyanogen bromide (CNBr) digestion, electrophoresed on a 16.5% SDS Tris-tricine gel, and then the gels were processed using silver stain techniques to visualize the proteins. Lane 1 contains molecular weight marker standards. Lanes 2 and 5 contain 10 and 20 μl of the collagen mixture following CNBr digestion. Lanes 3 and 6 contain the collagen mixture treated with 3DG and then digested with CNBr, and loaded at 10 and 20 μl, respectively. Lanes 4 and 7 contain the mixture of collagen incubated with 5 mM 3DG and 10 mM arginine and then digested with CNBr, and loaded at 10 and 20 μl, respectively.
Collagen I was incubated in the presence or absence of 3DG in vitro. Calf skin collagen Type 1 (1.3 mg; Sigma) was incubated in 20 mM Na-phosphate buffer, pH 7.25, either alone, with 5 mM 3DG, or with 5 mM 3DG plus 10 mM arginine, in a total volume of 1 ml at 37° C. for 24 hours and then frozen and lyophilized. The residue was dissolved in 0.5 ml of 70% formic acid and cyanogen bromide was added (20:1, w/w). This solution was incubated at 30° C. for 18 hours. […] The extent of collagen crosslinking was determined by applying equal volumes of sample and analyzing by SDS-PAGE electrophoresis (16.5% Tris-tricine gel), as determined by the effects of 3DG on the migration of collagen.

[2] = test system: 3DG; experiment: Plasma 3DG levels in diabetic and non-diabetic rats treated with 3-O-methyl sorbitollysine; type: in vivo; settings: 50 mg/kg injections, within one week
Method: A cohort of twelve diabetic rats was divided into two groups of six. The first group received saline-only injections, and the second received injections of 3-O-methyl sorbitollysine (50 mg/kg body weight) in saline solution. The same procedure was conducted on a cohort of twelve non-diabetic rats.

[3] = Locus of 3-O-methyl sorbitollysine uptake in vivo (tissue, urine, plasma analysis); design: species or system rats
Method: Six rats were injected intraperitoneally with […] (4.4 mg) of 3-O-methyl sorbitollysine. Urine was collected for 3 hours, after which the rats were sacrificed. The tissues to be analyzed were removed and freeze clamped in liquid nitrogen. Perchloric acid extracts of the tissues were used for metabolite analysis. The tissues examined were taken from the brain, heart, muscle, sciatic nerve, spleen, pancreas, liver, and kidney. Plasma was also analyzed.

[4] = Skin elasticity (vacuum pull needed to displace skin) in STZ-diabetic and normal rats; type: in vivo; settings: 50 mg/kg daily subcutaneous, eight weeks
Method: Experiments were performed to determine the effects of DYN 12 on the loss of skin elasticity associated with diabetes. To this end, two groups of STZ-diabetic rats and two groups of normal rats were subjected to treatment with DYN 12 or saline. One group of STZ-diabetic rats (n=9) received daily subcutaneous injections of DYN 12 at 50 mg/kg for eight weeks, as did one group of normal rats (n=6). A group of control diabetic rats (n=10) and a group of normal rats (n=6) received saline instead of DYN 12. One rat was removed from the diabetic DYN 12 group after 2 weeks because its blood glucose readings were inconsistent (too low) with other diabetic rats.
A non-invasive procedure based on CyberDERM, Inc. technology utilizing a skin elasticity measurement device was used to test the effects of DYN 12 treatment on skin elasticity. The procedure provides for non-invasive measurement of skin elasticity based upon the amount of vacuum pull required to displace skin. A suction cup probe is adhered to an area of shaved skin in order to form an airtight seal. Then, a vacuum is applied to the area of the skin inside the suction cup until the skin is displaced past a sensor located inside the probe. Accordingly, the more pressure that is required to displace the skin, the less elastic the skin is.

[5] = Muscle strength of alert diabetic rats; type: in vivo; settings: measured while alert, preliminary data
From the text: The present invention also encompasses methods for prevention of hair loss associated with or mediated by loss of microcirculation and/or loss of neuro-innervation in populations of aging, sclerodermic and/or in diabetic individuals. This is because 3DG is a known precursor to the formation of AGEs which are known to be causally connected to the development of neuropathy. […] This supports the concept that maintenance of nerve conduction and microcirculation that supports nerve innervation is deleteriously affected not only by AGEs, but also 3DG. Similarly, where 3DG would cause blockage of the microcirculation that supports nerve innervation of the hair follicle, the hair follicle will atrophy and die, as is the case in neuropathy.Accordingly, the present invention includes methods for preventing hair loss, where such hair loss is associated with or mediated by the presence of 3DG in the skin proximal to a hair follicle/shaft.
Skin elasticity measurements were also taken on the test subjects as described above, but without sedating the test animals before measurement. FIG. 15 illustrates skin elasticity measurements taken on the hind leg of the test subjects while the subjects were alert and being restrained by a technician.
In these experiments, the animals were fiercely fighting restraint and the results are different.

[6] = test system: mouse mesangial cells; experiment: Type IV collagen production in kidney cells in vitro; type: cell-based
Method: Type IV collagen production was measured in mouse mesangial cells. Controls (grown with […]) produced 300 ng of Type IV collagen per 10,000 cells, whereas fructoselysine treated cells (5 or 10 mM fructoselysine with 10 mM glucose) produced 560 and 1100 ng/10,000 cells.

[7] = design: species or system rats; settings: rat, in vivo
Method: Two rats were injected daily with 5 μmols of either FL or mannitol (used as a control) for 5 days. The animals were sacrificed and the kidneys removed and dissected into the cortex and medulla. Tissues were homogenized in 5 volumes of 50 mM Tris-HCl containing 150 mM KCl, 15 mM MgCl2 and 5 mM DTT, pH 7.5. Cellular debris was removed by centrifugation at 10,000×g for 15 minutes, and the supernatant was then centrifuged at 150,000×g for 70 minutes. The soluble proteins were analyzed by SDS PAGE on 12% polyacrylamide gels as well as on 4-15 and 10-20% gradient gels.

[8] = design: species or system human; settings: in vivo
Method: Volunteers spent two days on a fructoselysine-free diet and then consumed 22.5 g of the food product prepared as described herein, thus effectively receiving a 2 gram dose of fructoselysine. Urine was collected at 2 hour intervals for 14 hours and a final collection was made at 24 hours. FL was measured by HPLC with a Waters 996 diode Array using a Waters C18 Free Amino Acid column at 46° C. and a gradient elution system of acetonitrile-methyl alcohol-water (45:15:40) into acetonitrile-sodium acetate-water (6:2:92) at 1 ml/min. Quantitation employed an internal standard of meglumine. 3DF was measured by HPLC after deionization of the sample. Analyses were performed on a Dionex DX-500 HPLC system employing a PA1 column (Dionex) and eluting with 32 mM sodium hydroxide at 1 ml/min. Quantitation was performed from standard curves obtained daily with synthetic 3DF. 3DG was measured by GC-MS after deionization of the sample. 3DG was derivatized with a 10-fold excess of diaminonaphthalene in PBS. Ethyl acetate extraction gave a salt free fraction which was converted to the trimethyl silyl ethers with Tri-Sil (Pierce). Analysis was performed on a Hewlett-Packard 5890 selected ion monitoring GC-MS system. […] Quantitation of 3DG employed selected ion monitoring using an internal standard of U-13C-3DG.

T1 sequence (P02453 162-1217 limits assumed): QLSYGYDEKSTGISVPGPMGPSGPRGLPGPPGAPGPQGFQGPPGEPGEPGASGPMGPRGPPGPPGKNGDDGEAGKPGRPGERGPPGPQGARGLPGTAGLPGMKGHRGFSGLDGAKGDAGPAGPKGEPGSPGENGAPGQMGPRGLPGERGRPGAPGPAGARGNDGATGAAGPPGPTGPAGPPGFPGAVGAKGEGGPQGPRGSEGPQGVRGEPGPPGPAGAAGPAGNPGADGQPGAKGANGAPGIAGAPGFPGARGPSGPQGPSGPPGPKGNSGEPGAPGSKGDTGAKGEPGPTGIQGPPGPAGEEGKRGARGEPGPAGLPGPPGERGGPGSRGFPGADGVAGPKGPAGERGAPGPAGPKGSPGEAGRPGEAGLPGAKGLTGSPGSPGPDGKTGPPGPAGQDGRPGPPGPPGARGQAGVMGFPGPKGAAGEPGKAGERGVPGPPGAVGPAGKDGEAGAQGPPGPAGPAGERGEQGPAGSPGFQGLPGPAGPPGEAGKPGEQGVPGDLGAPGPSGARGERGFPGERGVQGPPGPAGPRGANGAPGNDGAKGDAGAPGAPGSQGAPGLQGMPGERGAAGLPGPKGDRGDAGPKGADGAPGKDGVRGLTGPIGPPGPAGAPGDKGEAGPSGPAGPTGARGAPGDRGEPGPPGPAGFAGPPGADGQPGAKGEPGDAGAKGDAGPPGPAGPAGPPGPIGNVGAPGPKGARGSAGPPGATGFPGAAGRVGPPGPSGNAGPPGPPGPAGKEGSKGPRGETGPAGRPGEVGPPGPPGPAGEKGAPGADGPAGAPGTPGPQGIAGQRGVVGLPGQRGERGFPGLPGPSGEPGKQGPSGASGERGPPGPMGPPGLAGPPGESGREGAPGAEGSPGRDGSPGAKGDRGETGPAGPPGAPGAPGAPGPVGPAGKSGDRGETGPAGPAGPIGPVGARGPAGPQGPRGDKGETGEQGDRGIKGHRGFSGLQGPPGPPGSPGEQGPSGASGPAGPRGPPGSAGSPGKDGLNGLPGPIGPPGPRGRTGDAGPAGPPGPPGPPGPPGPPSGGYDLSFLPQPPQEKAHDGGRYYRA
T1 sequence (P02465 80-1117 limits assumed): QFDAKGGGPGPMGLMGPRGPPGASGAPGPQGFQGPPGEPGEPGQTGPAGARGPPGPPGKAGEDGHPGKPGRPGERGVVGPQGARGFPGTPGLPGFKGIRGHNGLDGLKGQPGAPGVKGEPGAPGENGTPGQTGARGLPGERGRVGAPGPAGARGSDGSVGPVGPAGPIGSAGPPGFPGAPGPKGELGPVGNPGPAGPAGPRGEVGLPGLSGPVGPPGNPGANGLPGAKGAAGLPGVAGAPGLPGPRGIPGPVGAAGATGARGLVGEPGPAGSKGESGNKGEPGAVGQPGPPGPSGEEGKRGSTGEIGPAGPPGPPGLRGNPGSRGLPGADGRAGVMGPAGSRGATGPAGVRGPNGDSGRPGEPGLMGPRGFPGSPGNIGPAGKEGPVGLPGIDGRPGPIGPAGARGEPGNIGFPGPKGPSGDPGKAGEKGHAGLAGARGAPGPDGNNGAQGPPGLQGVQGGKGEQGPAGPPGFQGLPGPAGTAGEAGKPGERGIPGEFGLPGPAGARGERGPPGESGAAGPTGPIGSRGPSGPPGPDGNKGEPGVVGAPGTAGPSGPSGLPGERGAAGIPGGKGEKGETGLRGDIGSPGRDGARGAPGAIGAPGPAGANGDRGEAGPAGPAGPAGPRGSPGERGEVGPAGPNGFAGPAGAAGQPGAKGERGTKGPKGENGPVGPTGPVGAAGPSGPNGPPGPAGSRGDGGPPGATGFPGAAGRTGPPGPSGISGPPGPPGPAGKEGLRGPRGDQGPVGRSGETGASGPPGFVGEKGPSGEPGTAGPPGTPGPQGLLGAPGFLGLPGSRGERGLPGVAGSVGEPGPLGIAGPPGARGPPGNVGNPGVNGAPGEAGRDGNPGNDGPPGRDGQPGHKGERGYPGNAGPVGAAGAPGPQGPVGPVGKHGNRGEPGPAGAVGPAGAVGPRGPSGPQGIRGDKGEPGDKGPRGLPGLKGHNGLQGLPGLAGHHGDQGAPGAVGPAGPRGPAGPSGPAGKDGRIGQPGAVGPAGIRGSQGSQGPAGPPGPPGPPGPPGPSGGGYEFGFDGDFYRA

SMILES: O=CC(=O)C[C@H](O)[C@H](O)CO [3DG, 3-deoxyglucosone]
- collagen crosslinking (migration on SDS-PAGE) ([1]; 5 mM 3DG): caused the collagen to migrate as if it had a higher molecular weight

SMILES: N=C(N)NCCC[C@H](N)C(=O)O [arginine]
- inhibition of 3DG induced collagen crosslinking (high molecular weight bands) ([1]; 5 mM 3DG plus 10 mM arginine): fewer high molecular bands

SMILES: COC(C(O)CNCCCCC(N)C(=O)O)C(O)C(O)CO (stereo not drawn) [DYN 12, 3-O-methyl sorbitollysine]
- plasma 3DG level ([2]; Diabetic rats): 0.44 ± 0.10 µM
- plasma 3DG level ([2]; Non-diabetic rats): 0.13 ± 0.02 µM
- compound contained in plasma ([3]; 3 hours after i.p. injection): plasma did not
- % 3OMeSL recovered (injected dose recovered from urine and kidney) ([3]; individual rats, urine plus kidneys, 3 hours, listed as 3OMeSL): 91.5% and 38.8% and 96.4% and 61.2% and 53.0% and 53.3%
- amount of pressure needed to displace the skin [4]: 3.2±1.2 kPA
- muscle strength vs diabetic rats not so treated [5]: stronger muscle strength

SMILES: N[C@@H](CCCCNCC(=O)[C@@H](O)[C@H](O)[C@H](O)CO)C(=O)O [fructoselysine, 1-deoxy-1-(e-aminolysine)-fructose]
- Type IV collagen produced ([6]; 5 mM fructoselysine with 10 mM glucose): 560 ng/10,000 cells
- Type IV collagen produced ([6]; 10 mM fructoselysine with 10 mM glucose): 1100 ng/10,000 cells
- soluble kidney proteins on SDS PAGE vs mannitol-injected animal [7]: lower molecular weight bands were missing or visually reduced
- time of peak 3DF excretion in urine after the FL bolus [8]: about 4 hours
